Literature values as cited in patent US20070031339A1, “Contrast agents” (priority 2003, published 2007).

Conditions: aqueous solution at 350 mg iodine/ml, 37° C.

C[C@H](O)C(=O)Nc1c(I)c(C(=O)NC(CO)CO)c(I)c(C(=O)NC(CO)CO)c1I [lopamidol]
Viscosity: 7.6 mPas
